From ChEMBL document CHEMBL5154853, “Synthesis and Pharmacological Evaluation of New N-Sulfonylureas as NLRP3 Inflammasome Inhibitors: Identification of a Hit Compound to Treat Gout” (J Med Chem, 2022)
Activity calls are given as the source filed them.

Assays:
[1] = biological target: NACHT, LRR and PYD domains-containing protein 3 (Mus musculus) (UniProt Q8R4B8); test: Inhibition of NLRP3 inflammasome activation in LPS-primed mouse BMDM cells assessed as inhibition of caspase-1 cleavage in supernatant at 1 uM pretreated for 15 mins followed by ATP addition for 30 mins by Western blot analysis; format: cell-based; conditions: time 45.0 min
Sequence of NACHT, LRR and PYD domains-containing protein 3 (Mus musculus) (Q8R4B8 whole entry, the tested form may be a part): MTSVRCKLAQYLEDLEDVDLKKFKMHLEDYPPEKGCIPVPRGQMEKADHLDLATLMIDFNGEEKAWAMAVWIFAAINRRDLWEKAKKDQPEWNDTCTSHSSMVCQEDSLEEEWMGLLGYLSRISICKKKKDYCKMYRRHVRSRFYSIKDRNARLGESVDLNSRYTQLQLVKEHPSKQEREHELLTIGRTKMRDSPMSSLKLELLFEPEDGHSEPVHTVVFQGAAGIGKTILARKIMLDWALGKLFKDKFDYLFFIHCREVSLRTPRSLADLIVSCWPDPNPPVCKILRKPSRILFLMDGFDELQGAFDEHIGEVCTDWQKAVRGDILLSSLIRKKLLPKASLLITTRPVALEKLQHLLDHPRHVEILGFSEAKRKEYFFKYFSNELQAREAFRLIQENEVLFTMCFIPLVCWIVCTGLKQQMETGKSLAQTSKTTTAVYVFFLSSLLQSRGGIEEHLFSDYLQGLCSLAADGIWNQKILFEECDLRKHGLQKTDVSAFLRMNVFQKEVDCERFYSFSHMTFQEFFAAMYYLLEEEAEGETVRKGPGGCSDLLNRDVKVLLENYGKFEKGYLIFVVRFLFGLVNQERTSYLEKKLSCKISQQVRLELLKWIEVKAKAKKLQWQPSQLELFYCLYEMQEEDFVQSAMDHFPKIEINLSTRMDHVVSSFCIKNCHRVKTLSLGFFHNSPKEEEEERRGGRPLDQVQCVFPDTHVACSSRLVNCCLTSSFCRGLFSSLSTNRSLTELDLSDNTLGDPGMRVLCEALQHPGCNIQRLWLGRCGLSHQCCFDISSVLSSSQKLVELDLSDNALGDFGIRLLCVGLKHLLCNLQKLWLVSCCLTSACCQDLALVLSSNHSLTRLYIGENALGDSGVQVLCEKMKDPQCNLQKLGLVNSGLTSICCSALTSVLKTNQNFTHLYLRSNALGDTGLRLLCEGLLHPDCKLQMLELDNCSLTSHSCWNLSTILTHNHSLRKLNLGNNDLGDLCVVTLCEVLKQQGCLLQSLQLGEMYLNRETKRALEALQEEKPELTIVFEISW

Mus musculus [2] = test: Antiinflammatory activity in MSU-induced acute gout arthritis in wild type male C57BL/6J mouse model assessed as decrease in paw inflammation at 10 mg/kg, ip measured after 24 hrs relative to control; format: functional; set-up: scale not given: the % may be the effect or the level left
[3] = biological target: NACHT, LRR and PYD domains-containing protein 3 (Mus musculus, UniProt Q8R4B8); test: Inhibition of NLRP3 inflammasome activation in LPS-primed mouse BMDM cells assessed as reduction in ATP induced IL-1beta release pretreated for 15 mins followed by ATP stimulation for 30 mins by ELISA; format: cell-based
Sequence of NACHT, LRR and PYD domains-containing protein 3 (Q8R4B8 whole entry, the tested form may be a part): as above

[4] = biological target: NACHT, LRR and PYD domains-containing protein 3 (Mus musculus) (UniProt Q8R4B8); test: Inhibition of NLRP3 inflammasome oligomerization in LPS-primed mouse BMDM cells assessed as prevention of ASC specks formation at 1 uM pretreated for 15 mins followed by MSU stimulation for 30 mins by DAPI staining based confocal microscopic analysis; format: cell-based; conditions: time 45.0 min
Mus musculus [5] = test: Analgesic activity in MSU-induced mechanical hyperalgesia in wild type C57BL/6J mouse model assessed as decrease in paw withdrawal threshold at 3 mg/kg, ip measured after 24 hrs by von Frey test (Rvb= 72%); format: functional; set-up: scale not given: the % may be the effect or the level left
J774.A1 [6] = test: Cytotoxicity against mouse J774.A1 cells assessed as reduction in cell viability at 0.01 to 3 uM measured after 24 hrs by MTT assay; format: toxicity, cell-based; conditions: j774.a1, 24 h, dose 0.01-3 µM
Mus musculus [7] = test: Antiinflammatory activity in MSU-induced acute gout arthritis in NLRP3 knockout female C57BL/6J mouse model assessed as reduction in paw inflammation at 3 to 10 mg/kg, ip measured after 24 hrs relative to control; format: functional; set-up: scale not given: the % may be the effect or the level left; conditions: dose 3-10 mg/kg
J774.A1 [8] = test: Cytotoxicity against mouse J774.A1 cells assessed as reduction in cell viability at 10 uM measured after 24 hrs by MTT assay relative to control; format: toxicity, cell-based; conditions: j774.a1, 24 h
Mus musculus [9] = test: Antiinflammatory activity in MSU-induced acute gout arthritis in wild type female C57BL/6J mouse model assessed as decrease in paw inflammation at 10 mg/kg, ip measured after 24 hrs relative to control; format: functional; set-up: scale not given: the % may be the effect or the level left
Mus musculus [10] = test: Antiinflammatory activity in MSU-induced acute gout arthritis in wild type female C57BL/6J mouse model assessed as decrease in paw inflammation at 3 mg/kg, ip measured after 24 hrs relative to control; format: functional; set-up: scale not given: the % may be the effect or the level left
AML12 = test: Cytotoxicity against mouse AML12 cells assessed as reduction in cell viability at 0.01 to 30 uM measured after 24 hrs by MTT assay; format: toxicity, cell-based; conditions: aml12, 24 h, dose 0.01-30 µM
Mus musculus [11] = test: Antiinflammatory activity in MSU-induced acute gout arthritis in wild type male C57BL/6J mouse model assessed as decrease in paw inflammation at 3 mg/kg, ip measured after 24 hrs relative to control; format: functional; set-up: scale not given: the % may be the effect or the level left
Mus musculus [12] = test: Antiinflammatory activity in MSU-induced acute gout arthritis in wild type male C57BL/6J mouse model assessed as decrease in paw inflammation at 3 to 10 mg/kg, ip measured after 24 hrs; format: functional, organism-based; conditions: dose 3-10 mg/kg
[13] = biological target: NACHT, LRR and PYD domains-containing protein 3 (Mus musculus) (UniProt Q8R4B8); test: Inhibition of NLRP3 inflammasome activation in LPS-primed mouse BMDM cells assessed as inhibition of IL-1beta cleavage in supernatant at 1 uM pretreated for 15 mins followed by ATP addition for 30 mins by Western blot analysis; format: cell-based; conditions: time 45.0 min
Mus musculus [14] = test: Antiinflammatory activity in MSU-induced acute gout arthritis in NLRP3 knockout male C57BL/6J mouse model assessed as reduction in paw inflammation at 3 to 10 mg/kg, ip measured after 24 hrs relative to control; format: functional; set-up: scale not given: the % may be the effect or the level left; conditions: dose 3-10 mg/kg
[15] = biological target: NACHT, LRR and PYD domains-containing protein 3 (Mus musculus) (UniProt Q8R4B8); test: Inhibition of NLRP3 inflammasome oligomerization in LPS-primed mouse BMDM cells assessed as prevention of ASC specks formation at 1 uM pretreated for 15 mins followed by ATP stimulation for 30 mins by DAPI staining based confocal microscopic analysis; format: cell-based; conditions: time 45.0 min
J774.A1 [16] = test: Cytotoxicity against mouse J774.A1 cells assessed as reduction in cell viability at 30 uM measured after 24 hrs by MTT assay relative to control; format: toxicity, cell-based; conditions: j774.a1, 24 h
Mus musculus [17] = test: Analgesic activity in MSU-induced mechanical hyperalgesia in wild type C57BL/6J mouse model assessed as decrease in paw withdrawal threshold at 10 mg/kg, ip measured after 24 hrs by von Frey test (Rvb= 72%); format: functional; set-up: scale not given: the % may be the effect or the level left
Mus musculus [18] = test: Antiinflammatory activity in MSU-induced acute gout arthritis in NLRP3 knock out C57BL/6J mouse model assessed as reduction in paw swelling at 3 mg/kg, ip measured after 24 hrs relative to control; format: functional; set-up: scale not given: the % may be the effect or the level left
Mus musculus [19] = test: Antiinflammatory activity in MSU-induced acute gout arthritis in wild type male C57BL/6J mouse model assessed as decrease in paw inflammation at 3 mg/kg, ip measured after 24 hrs; format: functional, organism-based

Structure (SMILES) | inhibition [1] | Activity (Mus musculus [2]) [%] | IC50 [3] [nM] | inhibition [4] | Activity (Mus musculus [5]) [%] | Activity (J774.A1 [6]) | Activity (Mus musculus [7]) [%] | Activity (J774.A1 [8]) [%] | Activity (Mus musculus [9]) [%] | Activity (Mus musculus [10]) [%] | Activity (AML12) | Activity (Mus musculus [11]) [%] | Activity (Mus musculus [12]) | inhibition [13] | Activity (Mus musculus [14]) [%] | inhibition [15] | Activity (J774.A1 [16]) [%] | Activity (Mus musculus [17]) [%] | Activity (Mus musculus [18]) [%] | Activity (Mus musculus [19])
Cc1cc(C)cc(NC(=O)[N-]S(=O)(=O)c2cc(C(C)(C)O)co2)c1.[Na+] | Active | 66 | 0.23 | Active | 47 | Non-Toxic | 60 | 20 | 52 | 33 | Non-Toxic | 40 | Active | Active | 65 | Active | 20 | 19 |  | 
CC(C)(O)c1coc(S(=O)(=O)NC(=O)Nc2c3c(cc4c2CCC4)CCC3)c1 |  |  | 0.39 |  |  | Non-Toxic |  | 30 |  |  | Non-Toxic |  |  |  |  |  | 30 |  | 33 | Active
